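Each compound was tested at five concentrations against cells in 96-well plates for 48 hours. Here, GI50 denotes the concentration required for 50% inhibition of growth.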 Active and inactive are the calls of the source. Cut-off read from the data, not from the text of the source: active = GI50 up to about 1.1 µM and inactive = higher.
Legend:
Assay in all cases: NCI anticancer screen, dose series, 48 h
786-0 = test system: 786-0
A498 = test system: A498
A549 = test system: A549
ACHN = test system: ACHN
BT-549 = test system: BT-549
CAKI-1 = test system: CAKI-1
CCRF-CEM = test system: CCRF-CEM
COLO 205 = test system: COLO 205
DLD-1 = test system: DLD-1
DMS-114 = test system: DMS-114
DMS-273 = test system: DMS-273
DU-145 = test system: DU-145
EKVX = test system: EKVX
HCC 2998 = test system: HCC 2998
HCT-116 = test system: HCT-116
HCT-15 = test system: HCT-15
HL-60 = test system: HL-60
HOP-18 = test system: HOP-18
HOP-62 = test system: HOP-62
HOP-92 = test system: HOP-92
HT-29 = test system: HT-29
Hs-578T = test system: Hs-578T
IGROV-1 = test system: IGROV-1
K562 = test system: K562
KM-20L2 = test system: KM-20L2
KM12 = test system: KM12
LOX IMVI = test system: LOX IMVI
LXFL 529 = test system: LXFL 529
M14 = test system: M14
M19-MEL = test system: M19-MEL
MCF7 = test system: MCF7
MDA-MB-231 = test system: MDA-MB-231
MDA-MB-435 = test system: MDA-MB-435
MDA-N = test system: MDA-N
MOLT-4 = test system: MOLT-4
Malme-3M = test system: Malme-3M
NCI-H226 = test system: NCI-H226
NCI-H23 = test system: NCI-H23
NCI-H460 = test system: NCI-H460
NCI-H522 = test system: NCI-H522
NCI/ADR-RES = test system: NCI/ADR-RES
OVCAR-3 = test system: OVCAR-3
OVCAR-4 = test system: OVCAR-4
OVCAR-5 = test system: OVCAR-5
OVCAR-8 = test system: OVCAR-8
PC-3 = test system: PC-3
RPMI-8226 = test system: RPMI-8226
RXF 393 = test system: RXF 393
RXF 631 = test system: RXF 631
SF-268 = test system: SF-268
SF-295 = test system: SF-295
SF-539 = test system: SF-539
SK-MEL-28 = test system: SK-MEL-28
SK-MEL-2 = test system: SK-MEL-2
SK-MEL-5 = test system: SK-MEL-5
SK-OV-3 = test system: SK-OV-3
SN12C = test system: SN12C
SNB-19 = test system: SNB-19
SNB-75 = test system: SNB-75
SNB-78 = test system: SNB-78
SR = test system: SR
SW-620 = test system: SW-620
T47D = test system: T47D
TK-10 = test system: TK-10
U-251 = test system: U-251
UACC-257 = test system: UACC-257
UACC-62 = test system: UACC-62
UO-31 = test system: UO-31
XF498 = test system: XF498

## O=C1C(Br)=C(Br)C(=O)c2ccc(=O)ccc21
786-0
  GI50: 18.3 µM (inactive)
A498
  GI50: > 100 µM (inactive)
A549
  GI50: 70.6 µM (inactive)
ACHN
  GI50: 17.6 µM (inactive)
BT-549
  GI50: 24.2 µM (inactive)
CAKI-1
  GI50: 28.3 µM (inactive)
CCRF-CEM
  GI50: 2.88 µM (inactive)
COLO 205
  GI50: 13.3 µM (inactive)
DLD-1
  GI50: 22.3 µM (inactive)
DMS-114
  GI50: 20.4 µM (inactive)
DMS-273
  GI50: 48 µM (inactive)
DU-145
  GI50: > 100 µM (inactive)
EKVX
  GI50: 36.6 µM (inactive)
HCC 2998
  GI50: > 85.1 µM (inactive)
HCT-116
  GI50: 20 µM (inactive)
HCT-15
  GI50: 18.7 µM
HL-60
  GI50: 8.47 µM (inactive)
HOP-18
  GI50: 24.2 µM (inactive)
HOP-62
  GI50: 60.1 µM (inactive)
HOP-92
  GI50: 18.5 µM (inactive)
HT-29
  GI50: 30.8 µM (inactive)
Hs-578T
  GI50: 26.4 µM (inactive)
IGROV-1
  GI50: > 52.2 µM (inactive)
K562
  GI50: 30.7 µM (inactive)
KM-20L2
  GI50: > 100 µM (inactive)
KM12
  GI50: 46.8 µM (inactive)
LOX IMVI
  GI50: 20.6 µM (inactive)
LXFL 529
  GI50: 17.7 µM (inactive)
M14
  GI50: 17.9 µM (inactive)
M19-MEL
  GI50: 17.2 µM (inactive)
MCF7
  GI50: 18.6 µM (inactive)
MDA-MB-231
  GI50: 19.9 µM (inactive)
MDA-MB-435
  GI50: 18.7 µM (inactive)
MDA-N
  GI50: 22.6 µM (inactive)
MOLT-4
  GI50: 3.36 µM (inactive)
Malme-3M
  GI50: 19.9 µM (inactive)
NCI-H226
  GI50: > 53 µM (inactive)
NCI-H23
  GI50: 21.2 µM (inactive)
NCI-H460
  GI50: 38.8 µM (inactive)
NCI-H522
  GI50: 2.67 µM (inactive)
NCI/ADR-RES
  GI50: 20 µM (inactive)
OVCAR-3
  GI50: 20.8 µM (inactive)
OVCAR-4
  GI50: 17.5 µM (inactive)
OVCAR-5
  GI50: 50.5 µM (inactive)
OVCAR-8
  GI50: 22.3 µM (inactive)
PC-3
  GI50: > 56.5 µM (inactive)
RPMI-8226
  GI50: 20 µM (inactive)
RXF 393
  GI50: 19.2 µM (inactive)
RXF 631
  GI50: 18.7 µM (inactive)
SF-268
  GI50: 30.3 µM (inactive)
SF-295
  GI50: 33.2 µM (inactive)
SF-539
  GI50: 24.7 µM (inactive)
SK-MEL-28
  GI50: 27 µM (inactive)
SK-MEL-2
  GI50: 48.9 µM (inactive)
SK-MEL-5
  GI50: 21 µM (inactive)
SK-OV-3
  GI50: > 100 µM (inactive)
SN12C
  GI50: 19.1 µM (inactive)
SNB-19
  GI50: > 100 µM (inactive)
SNB-75
  GI50: 57.9 µM (inactive)
SNB-78
  GI50: 29.3 µM (inactive)
SR
  GI50: 26.1 µM (inactive)
SW-620
  GI50: 20.8 µM (inactive)
T47D
  GI50: 24.4 µM (inactive)
TK-10
  GI50: 18.7 µM (inactive)
U-251
  GI50: 38.3 µM (inactive)
UACC-257
  GI50: 24.7 µM (inactive)
UACC-62
  GI50: 19.5 µM (inactive)
UO-31
  GI50: 17.6 µM (inactive)
XF498
  GI50: 24 µM (inactive)

## Cc1cc(N(CCC#N)CCC#N)ccc1/C=C1\N=C(c2cc([N+](=O)[O-])ccc2Cl)N(NC(=O)c2ccc(/N=C\c3ccc(N(CCC#N)S(C)(=O)=O)cc3C)cc2)C1=O
786-0
  GI50: > 100 µM (inactive)
A498
  GI50: > 100 µM (inactive)
A549
  GI50: > 100 µM (inactive)
ACHN
  GI50: 89.9 µM (inactive)
CAKI-1
  GI50: > 100 µM (inactive)
CCRF-CEM
  GI50: 76.4 µM (inactive)
COLO 205
  GI50: > 100 µM (inactive)
DLD-1
  GI50: 63.5 µM (inactive)
DMS-114
  GI50: 85.5 µM (inactive)
DMS-273
  GI50: 41.5 µM (inactive)
EKVX
  GI50: > 100 µM (inactive)
HCC 2998
  GI50: > 100 µM (inactive)
HCT-116
  GI50: > 100 µM (inactive)
HCT-15
  GI50: 33 µM
HL-60
  GI50: 61.4 µM (inactive)
HOP-18
  GI50: > 100 µM (inactive)
HOP-62
  GI50: 63.5 µM (inactive)
HOP-92
  GI50: 98.9 µM (inactive)
HT-29
  GI50: 54.5 µM (inactive)
IGROV-1
  GI50: > 100 µM (inactive)
K562
  GI50: 31.9 µM (inactive)
KM-20L2
  GI50: 58.2 µM (inactive)
KM12
  GI50: > 100 µM (inactive)
LOX IMVI
  GI50: > 100 µM (inactive)
LXFL 529
  GI50: 64.3 µM (inactive)
M14
  GI50: 37.9 µM (inactive)
M19-MEL
  GI50: 73.1 µM (inactive)
Malme-3M
  GI50: > 100 µM (inactive)
NCI-H226
  GI50: > 100 µM (inactive)
NCI-H23
  GI50: > 100 µM (inactive)
NCI-H460
  GI50: > 100 µM (inactive)
NCI-H522
  GI50: > 100 µM (inactive)
OVCAR-3
  GI50: > 100 µM (inactive)
OVCAR-4
  GI50: > 100 µM (inactive)
OVCAR-5
  GI50: > 100 µM (inactive)
OVCAR-8
  GI50: > 100 µM (inactive)
RPMI-8226
  GI50: > 100 µM (inactive)
RXF 393
  GI50: > 100 µM (inactive)
RXF 631
  GI50: > 100 µM (inactive)
SF-268
  GI50: > 100 µM (inactive)
SF-539
  GI50: > 100 µM (inactive)
SK-MEL-28
  GI50: > 100 µM (inactive)
SK-MEL-2
  GI50: > 100 µM (inactive)
SK-MEL-5
  GI50: 38.2 µM (inactive)
SK-OV-3
  GI50: > 100 µM (inactive)
SN12C
  GI50: > 100 µM (inactive)
SNB-19
  GI50: > 100 µM (inactive)
SNB-75
  GI50: > 100 µM (inactive)
SNB-78
  GI50: > 100 µM (inactive)
SW-620
  GI50: > 100 µM (inactive)
TK-10
  GI50: > 100 µM (inactive)
U-251
  GI50: > 100 µM (inactive)
UACC-257
  GI50: 63.4 µM (inactive)
UACC-62
  GI50: 24.2 µM (inactive)
UO-31
  GI50: > 100 µM (inactive)
XF498
  GI50: > 100 µM (inactive)

## COC(=O)C1CC(C(=O)OC)c2nc3cc(C)ccc3nc21 (stereo unspecified)
786-0
  GI50: > 100 µM (inactive)
A498
  GI50: > 100 µM (inactive)
A549
  GI50: > 100 µM (inactive)
ACHN
  GI50: > 100 µM (inactive)
CAKI-1
  GI50: > 100 µM (inactive)
CCRF-CEM
  GI50: > 100 µM (inactive)
COLO 205
  GI50: > 100 µM (inactive)
DLD-1
  GI50: > 100 µM (inactive)
DMS-114
  GI50: > 100 µM (inactive)
DMS-273
  GI50: > 100 µM (inactive)
EKVX
  GI50: > 100 µM (inactive)
HCC 2998
  GI50: > 100 µM (inactive)
HCT-15
  GI50: > 100 µM
HL-60
  GI50: > 100 µM (inactive)
HOP-18
  GI50: 51.4 µM (inactive)
HOP-62
  GI50: > 100 µM (inactive)
HOP-92
  GI50: > 100 µM (inactive)
HT-29
  GI50: 62.7 µM (inactive)
IGROV-1
  GI50: > 100 µM (inactive)
K562
  GI50: > 100 µM (inactive)
KM-20L2
  GI50: > 100 µM (inactive)
KM12
  GI50: > 100 µM (inactive)
LOX IMVI
  GI50: > 100 µM (inactive)
LXFL 529
  GI50: > 100 µM (inactive)
M14
  GI50: > 100 µM (inactive)
M19-MEL
  GI50: > 100 µM (inactive)
MOLT-4
  GI50: > 100 µM (inactive)
Malme-3M
  GI50: > 100 µM (inactive)
NCI-H226
  GI50: > 100 µM (inactive)
NCI-H23
  GI50: > 100 µM (inactive)
NCI-H460
  GI50: > 100 µM (inactive)
NCI-H522
  GI50: > 100 µM (inactive)
OVCAR-3
  GI50: > 100 µM (inactive)
OVCAR-4
  GI50: > 100 µM (inactive)
OVCAR-5
  GI50: > 100 µM (inactive)
OVCAR-8
  GI50: > 100 µM (inactive)
RPMI-8226
  GI50: > 100 µM (inactive)
RXF 631
  GI50: > 100 µM (inactive)
SF-268
  GI50: > 100 µM (inactive)
SF-295
  GI50: > 100 µM (inactive)
SF-539
  GI50: > 100 µM (inactive)
SK-MEL-28
  GI50: > 100 µM (inactive)
SK-MEL-2
  GI50: > 100 µM (inactive)
SK-MEL-5
  GI50: > 100 µM (inactive)
SK-OV-3
  GI50: > 100 µM (inactive)
SN12C
  GI50: > 100 µM (inactive)
SNB-19
  GI50: > 100 µM (inactive)
SNB-75
  GI50: > 100 µM (inactive)
SNB-78
  GI50: > 100 µM (inactive)
SW-620
  GI50: > 100 µM (inactive)
TK-10
  GI50: > 100 µM (inactive)
U-251
  GI50: > 100 µM (inactive)
UACC-257
  GI50: 58.3 µM (inactive)
UACC-62
  GI50: > 100 µM (inactive)
UO-31
  GI50: > 100 µM (inactive)
XF498
  GI50: > 100 µM (inactive)
